ChEMBL document CHEMBL1201862, “PubChem BioAssay data set” (2004)
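A five-concentration, 48-hour dose response in 96-well plates underlies each endpoint, interpolated linearly between surrounding concentrations. Here, GI50 denotes the concentration required for 50% inhibition of growth.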 Active and inactive are the calls of the source. Rule as the data show it: active = GI50 up to about 1.1 µM and inactive = higher.

Experiments:
Assay in all cases: inhibition of tumour cell growth, NCI panel, 48 h
A498 = tested on: A498
ACHN = tested on: ACHN
BT-549 = tested on: BT-549
CAKI-1 = tested on: CAKI-1
EKVX = tested on: EKVX
HCC 2998 = tested on: HCC 2998
Hs-578T = tested on: Hs-578T
IGROV-1 = tested on: IGROV-1
MDA-MB-231 = tested on: MDA-MB-231
NCI-H460 = tested on: NCI-H460
NCI/ADR-RES = tested on: NCI/ADR-RES
OVCAR-4 = tested on: OVCAR-4
OVCAR-5 = tested on: OVCAR-5
OVCAR-8 = tested on: OVCAR-8
SF-295 = tested on: SF-295
SK-MEL-2 = tested on: SK-MEL-2
SK-MEL-5 = tested on: SK-MEL-5
SK-OV-3 = tested on: SK-OV-3
SNB-75 = tested on: SNB-75
MDA-N = tested on: MDA-N

SMILES	GI50 (A498)	GI50 (ACHN)	GI50 (BT-549)	GI50 (CAKI-1)	GI50 (EKVX)	GI50 (HCC 2998)	GI50 (Hs-578T)	GI50 (IGROV-1)	GI50 (MDA-MB-231)	GI50 (NCI-H460)	GI50 (NCI/ADR-RES)	GI50 (OVCAR-4)	GI50 (OVCAR-5)	GI50 (OVCAR-8)	GI50 (SF-295)	GI50 (SK-MEL-2)	GI50 (SK-MEL-5)	GI50 (SK-OV-3)	GI50 (SNB-75)	GI50 (MDA-N)
Clc1ccc2c(SCC3CO3)c3ccccc3nc2c1 (configuration not stated)	17.3 µM (inactive)	2.06 µM (inactive)	6.03 µM (inactive)	1.49 µM (inactive)	4.9 µM (inactive)	4.81 µM (inactive)	2.72 µM (inactive)	1.33 µM (inactive)	2.33 µM (inactive)	4.27 µM (inactive)	2.43 µM (inactive)	3.87 µM (inactive)	4.36 µM (inactive)	2.19 µM (inactive)	16.5 µM (inactive)	2.7 µM (inactive)	4.84 µM (inactive)	21.1 µM (inactive)	9.55 µM (inactive)	
Cc1cccc(/N=N/C(=O)NNc2cccc(C)c2C)c1C	34 µM (inactive)	41.7 µM (inactive)	23.3 µM (inactive)	39 µM (inactive)		15 µM (inactive)		23.9 µM (inactive)	47.5 µM (inactive)	38.5 µM (inactive)		30.8 µM (inactive)	37 µM (inactive)	33.3 µM (inactive)		21.9 µM (inactive)	28.6 µM (inactive)		54.3 µM (inactive)	36.3 µM (inactive)
Cc1ccc(/C=N/Nc2cc(C)c3cccc(C)c3n2)s1		16.5 µM (inactive)	5.45 µM (inactive)	15.8 µM (inactive)	13.5 µM (inactive)	6.38 µM (inactive)	13.9 µM (inactive)	2.61 µM (inactive)	> 10 µM (inactive)		2.99 µM (inactive)	13.9 µM (inactive)	9.91 µM (inactive)	10.4 µM (inactive)	7.1 µM (inactive)	16 µM (inactive)	9.86 µM (inactive)	16.4 µM (inactive)	11.9 µM (inactive)	8.89 µM (inactive)
[O-][S+](Cc1ccccc1)c1ccccc1Cn1cccc1 (configuration not stated)		> 100 µM (inactive)	61.1 µM (inactive)	> 100 µM (inactive)	> 100 µM (inactive)	> 100 µM (inactive)	> 100 µM (inactive)	> 100 µM (inactive)	> 100 µM (inactive)	> 100 µM (inactive)	> 100 µM (inactive)	41.9 µM (inactive)	> 100 µM (inactive)		60.4 µM (inactive)	> 100 µM (inactive)	> 100 µM (inactive)	> 100 µM (inactive)	74.3 µM (inactive)	
O=C1C=C/C(=N/c2ccccc2)c2ccccc21	21.2 µM (inactive)	14.4 µM (inactive)	14.7 µM (inactive)	14.8 µM (inactive)	2.06 µM (inactive)	10.2 µM (inactive)	3.74 µM (inactive)	5.25 µM (inactive)	1.9 µM (inactive)	3.32 µM (inactive)	15.1 µM (inactive)	11.9 µM (inactive)	17.9 µM (inactive)	11.3 µM (inactive)	7.4 µM (inactive)	2.19 µM (inactive)	1.31 µM (inactive)	20.4 µM (inactive)	6.53 µM (inactive)	
O=C(O)C1(C(=O)O)CC1(C(=O)O)C(=O)O		> 100 µM (inactive)	> 100 µM (inactive)	> 100 µM (inactive)	> 100 µM (inactive)	> 100 µM (inactive)	> 100 µM (inactive)	> 100 µM (inactive)	> 100 µM (inactive)	> 100 µM (inactive)	> 100 µM (inactive)	> 100 µM (inactive)	> 100 µM (inactive)	> 100 µM (inactive)	> 100 µM (inactive)	> 100 µM (inactive)	> 100 µM (inactive)	> 100 µM (inactive)	> 100 µM (inactive)	
N/N=C(\N)SCCCCCCCCCCS/C(N)=N/N	15.1 µM (inactive)	20.7 µM (inactive)	19.5 µM (inactive)	36.1 µM (inactive)	31.1 µM (inactive)	22.4 µM (inactive)	30.8 µM (inactive)	18.7 µM (inactive)	20.4 µM (inactive)	15.9 µM (inactive)	21.1 µM (inactive)		45.4 µM (inactive)	16.8 µM (inactive)	23 µM (inactive)	16.7 µM (inactive)	21 µM (inactive)	< 0.01 µM (active)		
CCCC(=O)OC1C(CO)OC(n2cc(F)c(=O)[nH]c2=O)C1F (configuration not stated)	5.68 µM (inactive)	44.1 µM (inactive)	11.5 µM (inactive)	50.2 µM (inactive)	67 µM (inactive)		53.7 µM (inactive)	95.7 µM (inactive)			11.3 µM (inactive)	60.5 µM (inactive)	> 100 µM (inactive)	72.1 µM (inactive)	82 µM (inactive)	> 100 µM (inactive)	53.2 µM (inactive)	> 100 µM (inactive)	5.86 µM (inactive)	
CSCCC(NC(c1ccccc1)c1ccccc1)[PH](=O)O (configuration not stated)		> 100 µM (inactive)	> 100 µM (inactive)	> 100 µM (inactive)	> 100 µM (inactive)		> 100 µM (inactive)	> 100 µM (inactive)		> 100 µM (inactive)	> 100 µM (inactive)	> 100 µM (inactive)	> 100 µM (inactive)	> 100 µM (inactive)	> 100 µM (inactive)	> 100 µM (inactive)	> 100 µM (inactive)	> 100 µM (inactive)	> 100 µM (inactive)	10 µM (inactive)
CN(C(=S)Cc1ccc(Cl)c(Cl)c1)C1CCCC[C@@H]1N1CCCC1 (some centres not stated)	13 µM (inactive)	62.1 µM (inactive)	72.1 µM (inactive)	44.6 µM (inactive)	> 100 µM (inactive)			< 0.01 µM (active)	34.4 µM (inactive)		85.9 µM (inactive)	84.9 µM (inactive)	59.8 µM (inactive)		17.1 µM (inactive)	31.6 µM (inactive)	18.5 µM (inactive)	58.7 µM (inactive)		17.8 µM (inactive)
CC1C/C(=N\N(C)C)C(C#N)(C#N)C1(C#N)C#N (configuration not stated)		8.43 µM (inactive)	4.57 µM (inactive)	1.75 µM (inactive)	22 µM (inactive)	17 µM (inactive)	35.6 µM (inactive)	20.6 µM (inactive)	0.583 µM (active)		25.8 µM (inactive)	12.6 µM (inactive)	21.6 µM (inactive)	19.2 µM (inactive)	20.8 µM (inactive)	22.2 µM (inactive)	18.7 µM (inactive)	> 46.9 µM (inactive)	9.64 µM (inactive)	17.8 µM (inactive)
Cc1ccc(C(=O)Oc2ccccc2)cc1/N=N/N(C)C		> 100 µM (inactive)	> 100 µM (inactive)	> 100 µM (inactive)	> 100 µM (inactive)	> 100 µM (inactive)	> 100 µM (inactive)	> 100 µM (inactive)	> 100 µM (inactive)	> 100 µM (inactive)	> 100 µM (inactive)	> 86.9 µM (inactive)	> 100 µM (inactive)	> 100 µM (inactive)	> 69.3 µM (inactive)	> 100 µM (inactive)	> 100 µM (inactive)	> 100 µM (inactive)		> 100 µM (inactive)
CC(=O)OCc1ccc2c(c1)C(O)NC(=O)O2 (configuration not stated)		> 100 µM (inactive)	> 100 µM (inactive)	> 100 µM (inactive)	> 100 µM (inactive)		18.7 µM (inactive)	> 100 µM (inactive)	> 100 µM (inactive)	> 100 µM (inactive)	> 100 µM (inactive)	93.1 µM (inactive)	> 100 µM (inactive)	> 100 µM (inactive)	> 100 µM (inactive)	> 100 µM (inactive)	72.9 µM (inactive)	> 100 µM (inactive)	> 100 µM (inactive)	
CC(=O)Oc1ccc(OC(Oc2ccccc2)c2ccccc2)cc1 (configuration not stated)	23.7 µM (inactive)	25.2 µM (inactive)	27 µM (inactive)	20 µM (inactive)	41.6 µM (inactive)	14.7 µM (inactive)		32.6 µM (inactive)	18.9 µM (inactive)	21.6 µM (inactive)	50.9 µM (inactive)	33.7 µM (inactive)	27.7 µM (inactive)	37.9 µM (inactive)	29.6 µM (inactive)			32.6 µM (inactive)	10.4 µM (inactive)	21.3 µM (inactive)
CC(C)(C)OC(=O)c1cnc(Cl)cn1		35.6 µM (inactive)	48.5 µM (inactive)	3.56 µM (inactive)	24.2 µM (inactive)		35.2 µM (inactive)	23.4 µM (inactive)	46.1 µM (inactive)	49.7 µM (inactive)	50 µM (inactive)	28.1 µM (inactive)	83.4 µM (inactive)	38.2 µM (inactive)	> 100 µM (inactive)	29.9 µM (inactive)	47.3 µM (inactive)	> 100 µM (inactive)	> 100 µM (inactive)	
O=c1c(C(c2cc(OCc3ccccc3)cc(OCc3ccccc3)c2)c2c(O)oc3ccccc3c2=O)c(O)oc2ccccc12	12 µM (inactive)	2.92 µM (inactive)	5.01 µM (inactive)	7.26 µM (inactive)	9.04 µM (inactive)	3.91 µM (inactive)	5.96 µM (inactive)	14.1 µM (inactive)	4.57 µM (inactive)	3.45 µM (inactive)	17.6 µM (inactive)	4.97 µM (inactive)	11.8 µM (inactive)	4.18 µM (inactive)	5.42 µM (inactive)	3.86 µM (inactive)	6.59 µM (inactive)	6.58 µM (inactive)	3.37 µM (inactive)	
